Earlier results on one compound are cited in patent US9707174B2, “Aqueous ophthalmic solution of olopatadine” (Gavis Pharmaceuticals, priority 2015, dated 2017).

For the series the following is noted: pH about 7.0, room temperature, olopatadine by itself.

Turning to `CN(C)CC/C=C1/c2ccccc2COc2ccc(CC(=O)O)cc21` [olopatadine], the “soluble in water up to a concentration” value was “about 0.18 w/v %”.
